Data as given in BindingDB's records for doi:10.1021/jm00092a001 (Wyeth-Ayerst Research, 1992).

Legend:
[1] = The compound was tested for inhibitory activity against 5-Lipoxygenase in guinea pig polymorphonuclear leukocytes
[2] = target: Polyunsaturated fatty acid 5-lipoxygenase (Mus musculus) (UniProt P48999); assay: The compound was tested for inhibitory activity against 5-lipoxygenase in mouse
Sequence of Polyunsaturated fatty acid 5-lipoxygenase (Mus musculus) (P48999 whole entry, looked up): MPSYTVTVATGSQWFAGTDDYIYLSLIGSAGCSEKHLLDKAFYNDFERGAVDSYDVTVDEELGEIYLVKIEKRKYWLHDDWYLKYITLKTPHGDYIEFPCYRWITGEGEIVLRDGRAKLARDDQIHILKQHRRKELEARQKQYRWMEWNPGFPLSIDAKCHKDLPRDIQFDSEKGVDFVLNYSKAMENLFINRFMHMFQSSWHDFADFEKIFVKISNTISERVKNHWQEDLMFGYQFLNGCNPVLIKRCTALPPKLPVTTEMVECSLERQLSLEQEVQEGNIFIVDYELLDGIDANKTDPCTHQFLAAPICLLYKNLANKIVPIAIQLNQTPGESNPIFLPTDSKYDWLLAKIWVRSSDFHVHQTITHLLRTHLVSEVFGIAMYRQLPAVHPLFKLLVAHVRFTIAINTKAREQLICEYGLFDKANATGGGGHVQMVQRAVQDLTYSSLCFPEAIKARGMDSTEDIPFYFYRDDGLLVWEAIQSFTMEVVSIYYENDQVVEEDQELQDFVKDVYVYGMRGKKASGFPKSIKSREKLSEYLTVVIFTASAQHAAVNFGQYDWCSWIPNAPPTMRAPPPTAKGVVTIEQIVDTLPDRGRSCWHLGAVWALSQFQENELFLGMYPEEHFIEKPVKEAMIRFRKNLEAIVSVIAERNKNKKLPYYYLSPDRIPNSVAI

| IC50 [1] [nM] | IC50 [2] [nM] | SMILES |
| --- | --- | --- |
| 600 | – | Cc1ccc(C)n1-c1ccc(/C=C/CC(=O)N(C)O)cc1 |
| – | 300 | Cc1nc(NCCCCCCc2ccccc2)nc(C)c1O |
